# Source: ChEMBL document CHEMBL5236595, “JDQ443, a Structurally Novel, Pyrazole-Based, Covalent Inhibitor of KRASG12C for the Treatment of Solid Tumors” (J Med Chem, 2022)
# Columns and labels:
# [1] = test system: GTPase KRas (Homo sapiens), P01116 [G12C]; assay: Displacement of [acrylamide-2,3-3H2]-N-(3-fluoro-4-(2-methyl-3-(5-methyl-1H- indazole-4-yl)-1H-pyrrolo[ 2,3-b]pyridin-1-yl)-phenyl from KRAS G12C mutant (unknown origin) assessed as ratio of Kinact/Ki by competitive scintillation proximity assay
# [2] = Apparent permeability across apical to basolateral side in MDCK-MDR1 cells at 10 uM after 2 hrs by LC-MS/MS analysis; assay type: ADME, cell-based, Canis lupus familiaris; details: dog
# [3] = Aqueous solubility of compound in pH 6.8; assay type: physicochemical; details: aqueous medium
# [4] = Lipophilicity, logD of compound at pH 7.4; assay type: physicochemical; details: buffer
# GTPase KRas = GTPase KRas (Homo sapiens, UniProt P01116, G12C); assay: Inhibition of KRAS G12C mutant in human NCI-H358 cells assessed as reduction in ERK phosphorylation incubated for 6 hrs by MSD assay; assay type: cell-based
# [5] = Aqueous solubility of compound in pH 4; assay type: physicochemical; details: aqueous medium
# [6] = AUC in human MIA PaCa-2 cells xenografted mouse at 30 mg/kg, po; assay type: ADME, organism-based; design: dose 30 mg/kg, route po; details: in vivo
# [7] = Cmax in human MIA PaCa-2 cells xenografted mouse at 30 mg/kg, po; assay type: ADME, organism-based; design: dose 30 mg/kg, route po; details: in vivo
# [8] = test system: GTPase KRas (Homo sapiens), P01116 [G12C]; assay: In vivo target occupancy at KRAS G12C mutant in human MIA PaCa-2 cells xenografted mouse assessed as decrease in free KRAS G12C level at 30 mg/kg, po after 3 hrs; assay type: functional, organism-based
# [9] = test system: GTPase KRas (Homo sapiens), P01116 [G12C]; assay: In vivo target occupancy at KRAS G12C mutant in human MIA PaCa-2 cells xenografted mouse assessed as decrease in free KRAS G12C level at 30 mg/kg, po after 6 hrs; assay type: functional, organism-based
# [10] = test system: GTPase KRas (Homo sapiens), P01116 [G12C]; assay: In vivo target occupancy at KRAS G12C mutant in human MIA PaCa-2 cells xenografted mouse assessed as decrease in free KRAS G12C level at 30 mg/kg, po after 24 hrs; assay type: functional, organism-based
# [11] = test system: GTPase KRas (Homo sapiens), P01116 [G12C]; assay: In vivo target occupancy at KRAS G12C mutant in human MIA PaCa-2 cells xenografted mouse assessed as decrease in […] expression at 30 mg/kg, po after 3 hrs; assay type: functional, organism-based
# [12] = test system: GTPase KRas (Homo sapiens), P01116 [G12C]; assay: In vivo target occupancy at KRAS G12C mutant in human MIA PaCa-2 cells xenografted mouse assessed as decrease in […] expression at 30 mg/kg, po after 6 hrs; assay type: functional, organism-based
# [13] = test system: GTPase KRas (Homo sapiens), P01116 [G12C]; assay: In vivo target occupancy at KRAS G12C mutant in human MIA PaCa-2 cells xenografted mouse assessed as decrease in […] expression at 30 mg/kg, po after 24 hrs; assay type: functional, organism-based
# [14] = Volume of distribution at steady state in mouse at 1 mg/kg, iv measured upto 24 hrs by LC-MS/MS method; assay type: ADME, organism-based; details: in vivo, read-out: Vdss
# [15] = Tmax in mouse at 30 mg/kg, po measured upto 24 hrs by LC-MS/MS method; assay type: ADME, organism-based; details: in vivo
# [16] = Cmax in mouse at 30 mg/kg, po measured upto 24 hrs by LC-MS/MS method; assay type: ADME, organism-based; design: dose 30 mg/kg, time < 24 hrs, route po; details: in vivo
# [17] = AUCinfinity in mouse at 30 mg/kg, po measured upto 24 hrs by LC-MS/MS method; assay type: ADME, organism-based; design: dose 30 mg/kg, time < 24 hrs, route po; details: in vivo
# [18] = Volume of distribution at steady state in Beagle dog at 0.1 mg/kg, iv measured upto 24 hrs by LC-MS/MS method; assay type: ADME, organism-based, Canis lupus familiaris; details: in vivo, read-out: Vdss
# [19] = Tmax in Beagle dog at 15 mg/kg, po measured upto 24 hrs by LC-MS/MS method; assay type: ADME, organism-based, Canis lupus familiaris; details: in vivo
# [20] = Cmax in Beagle dog at 15 mg/kg, po measured upto 24 hrs by LC-MS/MS method; assay type: ADME, organism-based, Canis lupus familiaris; design: time < 24 hrs, dose 15 mg/kg, route po; details: in vivo
# [21] = AUCinfinity in Beagle dog at 15 mg/kg, po measured upto 24 hrs by LC-MS/MS method; assay type: ADME, organism-based, Canis lupus familiaris; design: dose 15 mg/kg, time < 24 hrs, route po; details: in vivo
# [22] = Dose normalized AUC in Beagle dog at 15 mg/kg, po measured upto 24 hrs by LC-MS/MS method; assay type: ADME, organism-based, Canis lupus familiaris; details: in vivo
# [23] = Dose normalized AUC in mouse at 30 mg/kg, po measured upto 24 hrs by LC-MS/MS method; assay type: ADME, organism-based; details: in vivo
# NCI-H358 = assay: Antiproliferative activity against human NCI-H358 cells by resazurin assay; assay type: functional
# NCI-H1437 = assay: Antiproliferative activity against human NCI-H1437 cells by resazurin assay; assay type: functional
# [24] = Solubility of compound in FaSSIF; assay type: ADME
# [25] = Solubility of compound in FeSSIF; assay type: ADME
# [26] = Apparent permeability in human Caco-2 cells; assay type: ADME, cell-based
# Cytochrome P450 3A4 [27] = target: T1, Cytochrome P450 3A4 (Homo sapiens, UniProt P08684); assay: Inhibition of CYP3A4 in human liver microsomes using testosterone as substrate incubated for 10 to 30 mins in presence of NADPH by LC-MS/MS method; assay type: ADME, Microsome
# Cytochrome P450 2D6 = Cytochrome P450 2D6 (Homo sapiens, UniProt P10635); assay: Inhibition of CYP2D6 in human liver microsomes using bufuralol as substrate incubated for 10 to 30 mins in presence of NADPH by LC-MS/MS method; assay type: ADME, Microsome
# Cytochrome P450 2C9 [28] = target: T2, Cytochrome P450 2C9 (Homo sapiens, UniProt P11712); assay: Inhibition of CYP2C9 in human liver microsomes using diclofenac as substrate incubated for 10 to 30 mins in presence of NADPH by LC-MS/MS method; assay type: ADME, Microsome
# Cytochrome P450 3A4 [29] = target: T1, Cytochrome P450 3A4; assay: Time dependent inhibition of CYP3A4 in pooled human liver microsomes measured upto 30 mins by LC-MS/MS method; assay type: ADME, Microsome; details: 0.5 h
# Cytochrome P450 2C9 [30] = target: T2, Cytochrome P450 2C9; assay: Time dependent inhibition of CYP2C9 in pooled human liver microsomes measured upto 30 mins by LC-MS/MS method; assay type: ADME, Microsome; details: 0.5 h
# [31] = target: Voltage-gated inwardly rectifying potassium channel KCNH2 (Homo sapiens, UniProt Q12809); assay: Inhibition of human ERG by manual patch clamp method; assay type: toxicity
# [32] = target: Voltage-dependent L-type calcium channel subunit alpha-1C (Homo sapiens, UniProt Q13936); assay: Inhibition of Cav1.2 (unknown origin)
# [33] = target: Sodium channel protein type 5 subunit alpha (Homo sapiens, UniProt Q14524); assay: Inhibition of Nav1.5 (unknown origin)
# Cav1.2 = Cav1.2 (Homo sapiens, UniProt Q13936); assay: Inhibition of Cav1.2 (unknown origin) at 50 uM relative to control
# Nav1.5 = Nav1.5 (Homo sapiens, UniProt Q14524); assay: Inhibition of Nav1.5 (unknown origin) at 50 uM relative to control
# [34] = Plasma protein binding in mouse incubated for 6 hrs by LC-MS/MS based rapid equlibrium dialysis method; assay type: ADME, cell-free; details: read-out: PPB (converted)
# [35] = Plasma protein binding in rat incubated for 6 hrs by LC-MS/MS based rapid equlibrium dialysis method; assay type: ADME, cell-free; details: read-out: PPB (converted)
# [36] = Plasma protein binding in dog incubated for 6 hrs by LC-MS/MS based rapid equlibrium dialysis method; assay type: ADME, cell-free, Canis lupus familiaris; details: read-out: PPB (converted)
# [37] = Plasma protein binding in human incubated for 6 hrs by LC-MS/MS based rapid equlibrium dialysis method; assay type: ADME, cell-free; details: read-out: PPB (converted)
# [38] = Toxicity in mouse xenografted with human MIA PaCa-2 cells assessed as tolerability at 3 to 30 mg/kg, po; assay type: organism-based; details: in vivo, dose 3-30 mg/kg
# [39] = Tmax in mouse xenografted with human MIA PaCa-2 cells at 3 to 30 mg/kg, po; assay type: ADME, organism-based; details: in vivo, dose 3-30 mg/kg
# MIA PaCa-2 [40] = assay: Antitumor activity against human MIA PaCa-2 cells xenografted in mouse assessed as tumor regression at 10 mg/kg, po; assay type: functional
# MIA PaCa-2 [41] = assay: Antitumor activity against human MIA PaCa-2 cells xenografted in mouse assessed as tumor regression at 30 mg/kg, po; assay type: functional
# [42] = Cysteine reactivity in pH 7.4 phosphate buffer assessed as compound half life at 2 uM in presence of GSH
# [43] = Drug concentration in human MIA PaCa-2 cells xenografted mouse blood at 100 mg/kg, po after 40 mins; assay type: ADME, organism-based; details: whole blood, read-out: Drug uptake
# [44] = Half life in human MIA PaCa-2 cells xenografted mouse at 100 mg/kg, po; assay type: ADME, organism-based; details: in vivo
# [45] = test system: GTPase KRas (Homo sapiens), P01116 [G12C]; assay: In vivo target occupancy at KRAS G12C mutant in human MIA PaCa-2 cells xenografted mouse assessed as decrease in free KRAS G12C level at 100 mg/kg, po after 3 hrs; assay type: functional, organism-based
# [46] = test system: GTPase KRas (Homo sapiens), P01116 [G12C]; assay: In vivo target occupancy at KRAS G12C mutant in human MIA PaCa-2 cells xenografted mouse assessed as decrease in free KRAS G12C level at 100 mg/kg, po after 24 hrs; assay type: functional, organism-based
smiles,measurement,setting,value
C=CC(=O)N1CC2(CC(n3nc(-c4ccc5nnccc5c4)c(-c4c(Cl)c(C)cc5[nH]ncc45)c3C)C2)C1,Ratio,[1],25 mM⁻¹ s⁻¹
same,"Papp A→B at 2 h, 10 µM",[2],6.1 ×10⁻⁶ cm/s
same,solubility,[3],10 µM
same,logD,[4],4.1
C=CC(=O)N1CC2(CC(n3nc(-c4ccc5c(cnn5C)c4)c(-c4c(Cl)c(C)cc5[nH]ncc45)c3C)C2)C1 [OPNURASIB],IC50,GTPase KRas,20 nM
same,"Papp A→B at 2 h, 10 µM",[2],5 ×10⁻⁶ cm/s
same,solubility,[5],10 µM
same,solubility,[3],10 µM
same,logD,[4],4.6
same,AUC,[6],8.9 µM·h
same,Cmax,[7],1700 nM
same,Occ,[8],3%
same,Occ,[9],2%
same,Occ,[10],23%
same,Occ,[11],27%
same,Occ,[12],37%
same,Occ,[13],100%
same,Vd,[14],5.9 L/kg
same,Tmax,[15],0.5 h
same,Cmax,[16],2000 nM
same,AUC(0-inf),[17],6 µM·h
same,Vd,[18],4.2 L/kg
same,Tmax,[19],5 h
same,Cmax,[20],1100 nM
same,AUC(0-inf),[21],10 µM·h
same,AUC/dose,[22],0.65 µM·h
same,AUC/dose,[23],0.2 µM·h
same,GI50,NCI-H358,18 nM
same,GI50,NCI-H1437,4400 nM
same,solubility,[24],6 µg/mL
same,solubility,[25],250 µg/mL
same,Papp,[26],6.78 ×10⁻⁶ cm/s
same,IC50,Cytochrome P450 3A4 [27],6230 nM
same,IC50,Cytochrome P450 2D6,> 20000 nM
same,IC50,Cytochrome P450 2C9 [28],3740 nM
same,TDI,Cytochrome P450 3A4 [29],Not Active
same,TDI,Cytochrome P450 2C9 [30],Not Active
same,IC50,[31],> 4700 nM
same,IC50,[32],> 10000 nM
same,IC50,[33],> 10000 nM
same,inhibition at 50 µM,Cav1.2,8%
same,inhibition at 50 µM,Nav1.5,12%
same,fraction unbound at 6 h,[34],0.016
same,fraction unbound at 6 h,[35],0.024
same,fraction unbound at 6 h,[36],0.031
same,fraction unbound at 6 h,[37],0.007
same,Activity,[38],Non-Toxic
same,Tmax,[39],1 h
same,Activity,MIA PaCa-2 [40],-34%
same,Activity,MIA PaCa-2 [41],-87%
C=CC(=O)N1CC2(CC(n3nc(-c4ccc5c(cnn5CCOC)c4)c(-c4c(Cl)c(C)cc5[nH]ncc45)c3C)C2)C1,Ratio,[1],190 mM⁻¹ s⁻¹
same,IC50,GTPase KRas,8 nM
same,solubility,[3],10 µM
same,logD,[4],4.5
same,AUC,[6],1.5 µM·h
same,Cmax,[7],600 nM
same,Occ,[8],100%
same,Occ,[10],100%
same,Occ,[11],100%
same,Occ,[13],100%
C=CC(=O)N1CC2(CC(n3nc(-c4ccccn4)c(-c4c(Cl)c(C)cc5[nH]ncc45)c3C)C2)C1,Ratio,[1],7 mM⁻¹ s⁻¹
C=CC(=O)Nc1ccc(-n2nc(C(C)C)c(-c3c(C)ccc4[nH]ncc34)c2C)c(C)c1,Ratio,[1],1.7 mM⁻¹ s⁻¹
same,IC50,GTPase KRas,1500 nM
same,T1/2,[42],1.78 h
C=CC(=O)N1CC2(CC(n3nc(-c4ccccc4)c(-c4c(Cl)c(C)cc5[nH]ncc45)c3C)C2)C1,Ratio,[1],60 mM⁻¹ s⁻¹
same,IC50,GTPase KRas,20 nM
same,concentration at 40 min,[43],4000 nM
same,half-life,[44],2.5 h
same,Occ,[45],20%
same,Occ,[46],40%
same,solubility,[3],10 µM
same,logD,[4],4.9
